Results as given in patent US8354403B2, “Pyrrolidine derived beta 3 adrenergic receptor agonists” (Merck Sharp & Dohme Corp., priority 2009, dated 2013).
Where two headings read alike, the source gives them in different places.

Biological target: T1, human β3 adrenergic receptor (Homo sapiens, UniProt P13945)
T1 construct: expressed in transfected cells; host or cells: Chinese hamster ovary (CHO) cells, stably transfected
Experiment: Beta-3 agonist in vitro functional assay: cAMP production (LANCE TR-FRET) in CHO cells stably transfected with the cloned β3 receptor
Format: cell-based
Procedure, shortened: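 CHO cells stably expressing the cloned receptor, in HEPES-buffered HBSS with BSA and 0.6 mM IBMX, 6,000 cells/well, exposed to compound for 30 min at RT. cAMP read by LANCE TR-FRET against a cAMP standard curve. Isoproterenol defines maximal stimulation.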

[1] = Table 8, Beta-3 agonist in vitro functional assay, read-out: Human β3 agonist functional activity
[2] = Table 4, cAMP, CHO cells, read-out: Human β3 agonist functional activity
[3] = Table 12, human β3 functional activity given as ranges, read-out: Human β3 agonist functional activity
[4] = Table 9, Beta-3 agonist in vitro functional assay, read-out: Human β3 agonist functional activity
[5] = Table 10, Beta-3 agonist in vitro functional assay, read-out: Human β3 agonist functional activity
[6] = Table 11, cAMP, CHO cells, read-out: Human β3 agonist functional activity
[7] = Table 5, cAMP, CHO cells, read-out: Human β3 agonist functional activity
[8] = Table 7, cAMP, CHO cells, ranges as given for Tables 6 and 7, read-out: Human β3 agonist functional activity

T1 sequence (P13945 whole entry): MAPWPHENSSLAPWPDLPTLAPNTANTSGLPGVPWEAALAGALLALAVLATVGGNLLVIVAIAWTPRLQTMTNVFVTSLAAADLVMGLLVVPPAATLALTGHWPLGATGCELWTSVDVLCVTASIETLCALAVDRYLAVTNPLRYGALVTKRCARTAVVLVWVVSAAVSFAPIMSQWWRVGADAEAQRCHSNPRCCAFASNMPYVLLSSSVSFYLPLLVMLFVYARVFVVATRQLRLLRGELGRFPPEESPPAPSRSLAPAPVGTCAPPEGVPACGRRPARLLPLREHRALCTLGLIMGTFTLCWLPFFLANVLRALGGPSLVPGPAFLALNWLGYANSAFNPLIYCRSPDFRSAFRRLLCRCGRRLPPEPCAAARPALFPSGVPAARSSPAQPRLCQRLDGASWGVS

SMILES: COc1ccc(C2(CNC(=O)C(C)(C)C)CCN(C(=O)c3ccc(C[C@@H]4CC[C@H]([C@H](O)c5cccnc5)N4)cc3)CC2)cc1 [Example 247]
- EC50 [1]: 100 to 999 nM

SMILES: O=C(c1ccc(C[C@@H]2CC[C@H]([C@H](O)c3ccccc3)N2)cc1)N1Cc2cocc2C1 [Example 26]
- EC50 [2]: 10 to 99.9 nM

SMILES: O=C1NC(=O)C2(CCN(C(=O)c3ccc(C[C@@H]4CC[C@H]([C@H](O)c5cccnc5)N4)cc3)CC2)N1 [Example 268]
- EC50 [1]: 10 to 99.9 nM

SMILES: O=C1OC2(CCN(C(=O)c3ccc(C[C@@H]4CC[C@H]([C@H](O)c5ccccc5)N4)cc3)CC2)c2ccccc21 [Example 283]
- EC50 [1]: 10 to 99.9 nM

SMILES: CC(c1ccn(C)n1)N1CCN(C(=O)c2ccc(CC3CCC(C(O)c4ccccc4)N3)cc2)CC1 (single isomer, unassigned) [Example 577]
- EC50 [3]: 1 to 9.9 nM

SMILES: O=C(O)CN1CCN(C(=O)c2ccc(C[C@@H]3CC[C@H]([C@H](O)c4ccccc4)N3)cc2)CC1 [Example 390]
- EC50 [4]: 100 to 999 nM

SMILES: O=C(c1ccc(C[C@@H]2CC[C@H]([C@H](O)c3ccccc3)N2)cc1)N1CCN(c2ccncc2)CC1 [Example 356]
- EC50 [4]: 100 to 999 nM

SMILES: CC(C(=O)N(C1CC1)C1CC1)N1CCN(C(=O)c2ccc(C[C@@H]3CC[C@H]([C@H](O)c4ccccc4)N3)cc2)CC1 (stereo partly shown) [Example 522]
- EC50 [5]: 10 to 99.9 nM

SMILES: CC(c1cocn1)N1CCN(C(=O)c2ccc(CC3CCC(C(O)c4ccccc4)N3)cc2)CC1 (single isomer, unassigned) [Example 585]
- EC50 [3]: 10 to 99.9 nM

SMILES: CC1(C)CC2(CCN(C(=O)c3ccc(C[C@@H]4CC[C@H]([C@H](O)c5ccccc5)N4)cc3)CC2)CO1 [Example 312]
- EC50 [1]: 100 to 999 nM

SMILES: O=C(c1ccc(C[C@@H]2CC[C@H]([C@H](O)c3ccccc3)N2)cc1)N1CCC2(C=Cc3ccccc3S2(=O)=O)CC1 [Example 337]
- EC50 [1]: 1 to 9.9 nM

SMILES: O=C(c1ccc(C[C@@H]2CC[C@H]([C@H](O)c3ccccc3)N2)cc1)N1CCC(n2cccn2)CC1 [Example 64, (R)-phenyl[(2R,5S)-5-(4-{[4-(1H-pyrazol-1-yl)-piperidin-1-yl]carbonyl}benzyl)pyrrolidine-2-yl]methanol]
- EC50 (given as a range, cAMP, CHO cells, read-out: human β3 functional activity): 10 to 99.9 nM

SMILES: CC1CC2(CCN(C(=O)c3ccc(C[C@@H]4CC[C@H]([C@H](O)c5ccccc5)N4)cc3)CC2)OC1=O (stereo partly shown) [Example 274]
- EC50 [1]: 10 to 99.9 nM

SMILES: CC(C(=O)N1CCCC2(CCC2)C1)N1CCN(C(=O)c2ccc(C[C@@H]3CC[C@H]([C@H](O)c4ccccc4)N3)cc2)CC1 (stereo partly shown) [Example 496]
- EC50 [5]: 10 to 99.9 nM

SMILES: CC(C)CCNC(=O)C(C)N1CCN(C(=O)c2ccc(C[C@@H]3CC[C@H]([C@H](O)c4ccccc4)N3)cc2)CC1 (stereo partly shown) [Example 438]
- EC50 [5]: 100 to 999 nM

SMILES: CC(C)COc1ccc2c(c1)C(=O)CC1(CCN(C(=O)c3ccc(C[C@@H]4CC[C@H]([C@H](O)c5ccccc5)N4)cc3)CC1)O2 [Example 324]
- EC50 [1]: 10 to 99.9 nM

SMILES: Cc1nnc(C2(C3CCCCC3)CCN(C(=O)c3ccc(C[C@@H]4CC[C@H]([C@H](O)c5ccccc5)N4)cc3)CC2)o1 [Example 249]
- EC50 [1]: 100 to 999 nM

SMILES: O=C(c1ccc(C[C@@H]2CC[C@H]([C@H](O)c3ccccc3)N2)cc1)N1CCCN(Cc2ccccn2)CC1 [Example 551]
- EC50 [6]: 10 to 99.9 nM

SMILES: O=C(c1ccc(C[C@@H]2CC[C@H]([C@H](O)c3ccccc3)N2)cc1)N1CCC(n2c(=O)[nH]c3nc(F)ccc32)CC1 [Example 73]
- EC50 [7]: 10 to 99.9 nM

SMILES: CC(C(=O)N1Cc2cncnc2C1)N1CCN(C(=O)c2ccc(C[C@@H]3CC[C@H]([C@H](O)c4ccccc4)N3)cc2)CC1 (stereo partly shown) [Example 483]
- EC50 [5]: 100 to 999 nM

SMILES: O=C(c1ccc(C[C@@H]2CC[C@H]([C@H](O)c3cccnc3)N2)cc1)N1CCC(S(=O)(=O)c2cccc(F)c2)CC1 [Example 131]
- EC50 [7]: 100 to 999 nM

SMILES: CC(C)(c1ccccc1F)N1CCN(C(=O)c2ccc(C[C@@H]3CC[C@H]([C@H](O)c4ccccc4)N3)cc2)CC1 [Example 412]
- EC50 [4]: 1 to 9.9 nM

SMILES: O=C(c1ccc(C[C@@H]2CC[C@H]([C@H](O)c3ccccc3)N2)cc1)N1CCCC2(CCOC2=O)C1 (stereo partly shown) [Example 40]
- EC50 [2]: 10 to 99.9 nM

SMILES: CS(=O)(=O)N1CCN(C(=O)c2ccc(C[C@@H]3CC[C@H]([C@H](O)c4ccccc4)N3)cc2)CC1 [Example 345]
- EC50 [4]: 100 to 999 nM

SMILES: CCOc1cccnc1N1CCN(C(=O)c2ccc(C[C@@H]3CC[C@H]([C@H](O)c4ccccc4)N3)cc2)CC1 [Example 362]
- EC50 [4]: 10 to 99.9 nM

SMILES: O=C(c1ccc(C[C@@H]2CC[C@H]([C@H](O)c3ccccc3)N2)cc1)N1CCN(c2noc3ccccc23)CC1 [Example 385]
- EC50 [4]: 10 to 99.9 nM

SMILES: O=C(c1ccc(C[C@@H]2CC[C@H]([C@H](O)c3ccccc3)N2)cc1)N1CCC(Cc2ccccc2F)CC1 [Example 144]
- EC50 [7]: 10 to 99.9 nM

SMILES: O=C(c1ccc(C[C@@H]2CC[C@H]([C@H](O)c3ccccc3)N2)cc1)N1CCN(c2ccc3c(c2)OCO3)CC1 [Example 353]
- EC50 [4]: 100 to 999 nM

SMILES: O=C(c1ccc(C[C@@H]2CC[C@H]([C@H](O)c3ccccc3)N2)cc1)N1CCC(Oc2ccccn2)CC1 [Example 152]
- EC50 [7]: 10 to 99.9 nM

SMILES: O=C(c1ccc(C[C@@H]2CC[C@H]([C@H](O)c3ccccc3)N2)cc1)N1CCC(S(=O)(=O)c2cc(F)ccc2F)CC1 [Example 140]
- EC50 [7]: 10 to 99.9 nM

SMILES: O=C(c1ccc(C[C@@H]2CC[C@H]([C@H](O)c3ccccc3)N2)cc1)N1CC2CC(n3ncnn3)CC2C1 (stereo partly shown) [Example 19]
- EC50 [2]: 10 to 99.9 nM

SMILES: COc1cc(OC)nc(C2CCN(C(=O)c3ccc(C[C@@H]4CC[C@H]([C@H](O)c5ccccc5)N4)cc3)CC2)n1 [Example 115]
- EC50 [7]: 100 to 999 nM

SMILES: O=C(c1ccc(C[C@@H]2CC[C@H]([C@H](O)c3ccccc3)N2)cc1)N1CCN(Cc2ccccc2F)CC1 [Example 410]
- EC50 [4]: 10 to 99.9 nM

SMILES: O=C1CC2(CCN(C(=O)c3ccc(C[C@@H]4CC[C@H]([C@H](O)c5ccccc5)N4)cc3)CC2)S(=O)(=O)c2sccc21 [Example 340]
- EC50 [1]: 1 to 9.9 nM

SMILES: O=C1OC2(CCN(C(=O)c3ccc(C[C@@H]4CC[C@H]([C@H](O)c5ccccc5)N4)cc3)CC2)CC1Cc1ccc(F)cc1 (stereo partly shown) [Example 276]
- EC50 [1]: 1 to 9.9 nM

SMILES: N#CC1(c2ccccn2)C2CN(C(=O)c3ccc(C[C@@H]4CC[C@H]([C@H](O)c5ccccc5)N4)cc3)CC21 (stereo partly shown) [Example 238]
- EC50 [8]: 10 to 99.9 nM

SMILES: O=C(c1ccc(C[C@@H]2CC[C@H]([C@H](O)c3ccccc3)N2)cc1)N1CCN2C(=O)CCC2C1 (stereo partly shown) [Example 550]
- EC50 [6]: 100 to 999 nM

SMILES: CC(C(=O)NC(C1CC1)C1CC1)N1CCN(C(=O)c2ccc(C[C@@H]3CC[C@H]([C@H](O)c4ccccc4)N3)cc2)CC1 (stereo partly shown) [Example 451]
- EC50 [5]: 10 to 99.9 nM

SMILES: CC(C(=O)N1CCOCC1)N1CCN(C(=O)c2ccc(C[C@@H]3CC[C@H]([C@H](O)c4ccccc4)N3)cc2)CC1 (stereo partly shown) [Example 499]
- EC50 [5]: 100 to 999 nM

SMILES: O=C(c1ccc(C[C@@H]2CC[C@H]([C@H](O)c3ccccc3)N2)cc1)N1CCN(c2nccc3ccccc23)CC1 [Example 373]
- EC50 [4]: 10 to 99.9 nM

SMILES: O=C(c1ccc(C[C@@H]2CC[C@H]([C@H](O)c3ccccc3)N2)cc1)N1CCC2(CCc3ccccc3S2(=O)=O)CC1 [Example 336]
- EC50 [1]: 1 to 9.9 nM

SMILES: CC(C(=O)N1CCc2ccncc2C1)N1CCN(C(=O)c2ccc(C[C@@H]3CC[C@H]([C@H](O)c4ccccc4)N3)cc2)CC1 (stereo partly shown) [Example 506]
- EC50 [5]: 10 to 99.9 nM

SMILES: COc1cccnc1N1CCN(C(=O)c2ccc(C[C@@H]3CC[C@H]([C@H](O)c4ccccc4)N3)cc2)CC1 [Example 361]
- EC50 [4]: 10 to 99.9 nM

SMILES: O=C(c1ccc(C[C@@H]2CC[C@H]([C@H](O)c3ccccc3)N2)cc1)N1CCC2(CC1)C(=O)NCC2c1ccc(C(F)(F)F)cc1 (stereo partly shown) [Example 263]
- EC50 [1]: < 1 nM

SMILES: O=C(c1ccc(C[C@@H]2CC[C@H]([C@H](O)c3ccccc3)N2)cc1)N1CCN(c2ncc3ccccc3n2)CC1 [Example 375]
- EC50 [4]: 100 to 999 nM

SMILES: CCN(CC)C(=O)C(C)N1CCN(C(=O)c2ccc(C[C@@H]3CC[C@H]([C@H](O)c4ccccc4)N3)cc2)CC1 (stereo partly shown) [Example 516]
- EC50 [5]: 100 to 999 nM

SMILES: CO[C@@H]1CCN(C(=O)c2ccc(C[C@@H]3CC[C@H]([C@H](O)c4ccccc4)N3)cc2)C1 [Example 7]
- EC50 [2]: 100 to 999 nM

SMILES: Cc1noc(C2CCCCN2C(=O)c2ccc(C[C@@H]3CC[C@H]([C@H](O)c4ccccc4)N3)cc2)n1 (stereo partly shown) [Example 49]
- EC50 [2]: 999 to 3000 nM

SMILES: CC(c1cocn1)N1CCN(C(=O)c2ccc(CC3CCC(C(O)c4ccccc4)N3)cc2)CC1 (single isomer, unassigned) [Example 586]
- EC50 [3]: 10 to 99.9 nM

SMILES: O=C(c1ccc(CC2CCC(C(O)c3ccccc3)N2)cc1)N1CC2C(C1)C2Cn1ccnn1 (stereo not shown) [Example 233]
- EC50 [8]: 100 to 999 nM

SMILES: O=C1NC2(CCN(C(=O)c3ccc(C[C@@H]4CC[C@H]([C@H](O)c5ccccc5)N4)cc3)CC2)CO1 [Example 271]
- EC50 [1]: 100 to 999 nM

SMILES: O=C(c1ccc(C[C@@H]2CC[C@H]([C@H](O)c3ccccc3)N2)cc1)N1CCN(Cc2noc3ccccc23)CC1 [Example 407]
- EC50 [4]: 1 to 9.9 nM

SMILES: CC(C(=O)NCC1(C)CCC1)N1CCN(C(=O)c2ccc(C[C@@H]3CC[C@H]([C@H](O)c4ccccc4)N3)cc2)CC1 (stereo partly shown) [Example 453]
- EC50 [5]: 1 to 9.9 nM

SMILES: O=C1OC2(CCN(C(=O)c3ccc(C[C@@H]4CC[C@H]([C@H](O)c5ccccc5)N4)cc3)CC2)c2ccncc21 [Example 285]
- EC50 [1]: 10 to 99.9 nM

SMILES: C[C@H]1CN(C(=O)c2ccc(C[C@@H]3CC[C@H]([C@H](O)c4ccccc4)N3)cc2)CCN1Cc1n[nH]c2ccccc12 [Example 532]
- EC50 [6]: 10 to 99.9 nM

SMILES: O=C(c1ccc(C[C@@H]2CC[C@H]([C@H](O)c3ccccc3)N2)cc1)N1CCC(n2c(=O)[nH]c3cc(Cl)ccc32)CC1 [Example 75]
- EC50 [7]: 100 to 999 nM

SMILES: Cc1cnnn1C1CCN(C(=O)c2ccc(C[C@@H]3CC[C@H]([C@H](O)c4ccccc4)N3)cc2)CC1 [Example 96]
- EC50 [7]: 100 to 999 nM

SMILES: CC1OC(=O)C2(CCN(C(=O)c3ccc(C[C@@H]4CC[C@H]([C@H](O)c5ccccc5)N4)cc3)CC2)C1C (stereo partly shown) [Example 297]
- EC50 [1]: 1 to 9.9 nM
